Source: patent publication US11731943B2, “Therapeutic compounds, compositions and methods of use thereof” (priority 2016, dated 2023)
Read-outs that look alike come from different tables or passages of the source.

What was measured:
[1] = target: isolated recombinant JAK1 kinase domain (Homo sapiens (Human), UniProt P23458); assay: JAK1 enzyme assay (Caliper LabChip, Ki); assay type: biochemical
How it was run: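 Ki derived via Morrison tight-binding model, ATP-competitive correction applied. Read-out: product/total ratio of a 5-carboxyfluorescein-tagged JAK3 peptide separated on Caliper LabChip after phosphorylation by isolated human JAK1 kinase domain (22 °C, 30 min; EDTA quench, 50 mM final).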

[2] = target: isolated recombinant JAK2 kinase domain (Homo sapiens (Human), UniProt O60674); assay: JAK2 enzyme assay (Caliper LabChip, Ki); assay type: biochemical
How it was run: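 Caliper LabChip readout of phosphorylated product as a fraction of total substrate, a fluorescently N-terminally labelled JAK3-derived peptide. Isolated human JAK kinase domains were incubated 30 min at 22 °C before EDTA quench (50 mM final).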

[3] = system: JAK1-dependent STAT6 phosphorylation downstream of IL-13 stimulation in BEAS-2B human bronchial epithelial cells; assay: JAK1 pathway assay in BEAS-2B cells (IL-13-pSTAT6, MSD); assay type: cell-based; settings: Homo sapiens, BEAS-2B
Description: JAK1 Pathway Assay in Cell Lines was carried out as follows:
Inhibitor potency (EC50) was determined in cell-based assays designed to measure JAK1 dependent STAT phosphorylation.
In one assay approach, TF-1 human erythroleukemia cells obtained from the American Type Culture Collection (ATCC; Manassas, Va.) were used to measure JAK1-dependent STAT6 phosphorylation downstream of IL-13 stimulation. Prior to use in the assays, TF-1 cells were starved of GM-CSF overnight in OptiMEM medium (Life Technologies, Grand Island, N.Y.) supplemented with 0.5% charcoal/dextran stripped fetal bovine serum (FBS), 0.1 mM non-essential amino acids (NEAA), and 1 mM sodium pyruvate. The assays were run in 384-well plates in serum-free OptiMEM medium using 300,000 cells per well. In a second assay approach, BEAS-2B human bronchial epithelial cells obtained from ATCC were plated at 100,000 cells per well of a 96-well plate one day prior to the experiment. The BEAS-2B assay was run in complete growth medium (bronchial epithelial basal medium plus bulletkit; Lonza; Basel, Switzerland).
Test compounds were serially diluted 1:2 in DMSO and then diluted 1:50 in medium just before use. Diluted compounds were added to the cells, for a final DMSO concentration of 0.2%, and incubated for 30 min (for the TF-1 assay) or 1 hr (for the BEAS-2B assay) at 37° C. Then, cells were stimulated with human recombinant cytokine at their respective EC90 concentrations, as previously determined for each individual lot. Cells were stimulated with IL-13 (R&D Systems, Minneapolis, Minn.) for 15 min at 37° C. The TF-1 cell reactions were stopped by the direct addition of 10× lysis buffer (Cell Signaling Technologies, Danvers, Mass.), whereas the BEAS-2B cell incubations were halted by the removal of medium and addition of 1× lysis buffer. The resultant samples were frozen in the plates at −80° C. Compound mediated inhibition of STATE phosphorylation was measured in the cell lysates using MesoScale Discovery (MSD) technology (Gaithersburg, Md.).

[4] = BEAS-2B cells, IL-13 stimulation, read-out: IL-13 p-STAT6 BEAS-2B IC50

Chain of isolated recombinant JAK2 kinase domain (O60674 849-1124): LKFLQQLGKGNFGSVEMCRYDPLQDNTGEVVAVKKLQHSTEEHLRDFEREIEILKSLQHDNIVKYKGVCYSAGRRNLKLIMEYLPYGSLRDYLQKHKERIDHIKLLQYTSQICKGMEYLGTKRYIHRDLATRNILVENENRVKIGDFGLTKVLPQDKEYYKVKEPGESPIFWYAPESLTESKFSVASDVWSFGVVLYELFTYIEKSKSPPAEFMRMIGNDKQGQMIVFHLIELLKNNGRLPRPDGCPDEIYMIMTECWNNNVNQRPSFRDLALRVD
Chain of isolated recombinant JAK1 kinase domain (P23458 875-1153): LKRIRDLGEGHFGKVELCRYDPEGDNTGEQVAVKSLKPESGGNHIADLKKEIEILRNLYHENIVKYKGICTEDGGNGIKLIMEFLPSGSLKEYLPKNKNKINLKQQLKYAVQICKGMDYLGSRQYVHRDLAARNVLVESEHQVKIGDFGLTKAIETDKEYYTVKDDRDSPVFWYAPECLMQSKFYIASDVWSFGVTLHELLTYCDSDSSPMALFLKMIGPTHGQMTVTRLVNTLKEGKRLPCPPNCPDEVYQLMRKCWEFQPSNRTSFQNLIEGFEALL

| Compound | Ki ([1]; read-out: JAK1 Ki) | Ki [2] | IC50 [3, 4] | Ki [1] | IC50 ([3]; read-out: IL-13 p-STAT6 BEAS-2B IC50, BEAS-2B cells, IL-13 stimulation) |
| --- | --- | --- | --- | --- | --- |
| CS(=O)(=O)Nc1cc(CN2CCC(CC#N)(n3cc(C(N)=O)c(NC(=O)C4CC4)n3)CC2)ccc1F [Example 79] | 3 nM | 14.2 nM | > 1000 nM |  |  |
| CS(=O)(=O)Nc1cc(F)cc(CN2CCC(CC#N)(n3cc(C(N)=O)c(NC(=O)C4CC4)n3)CC2)c1 [Example 80] | 1.2 nM | 3.6 nM | > 1000 nM |  |  |
| CC(=O)Nc1cc(CN2CCC(CC#N)(n3cc(C(N)=O)c(NC(=O)C4CC4)n3)CC2)ccc1Cl [Example 81] | 4.4 nM | 38.4 nM | > 1000 nM |  |  |
| Cn1ccc(-c2ccc(CN3CCC(CC#N)(n4cc(C(N)=O)c(NC(=O)C5CC5)n4)CC3)cc2)n1 [Example 82] | 4.9 nM | 14.3 nM | 688 nM |  |  |
| N#CCC1(n2cc(C(N)=O)c(NC(=O)C3CC3)n2)CCN(Cc2ccc(-n3cccn3)cc2)CC1 [Example 87] | 2.2 nM | 25.1 nM | 350 nM |  |  |
| N#CCC1(n2cc(C(N)=O)c(NC(=O)C3CC3)n2)CCN(Cc2ccc(-n3nccn3)cc2)CC1 [Example 89] | 0.7 nM | 6.8 nM | 119 nM |  |  |
| CC(C)S(=O)(=O)Nc1cccc(CN2CCC(CC#N)(n3cc(C(N)=O)c(NC(=O)C4CC4)n3)CC2)c1 [Example 94] | 4.1 nM | 21.8 nM | > 1000 nM |  |  |
| N#CCC1(n2cc(C(N)=O)c(NC(=O)C3CC3)n2)CCN(Cc2ccc3c(c2)[nH]c2ccccc23)CC1 [Example 95] | 1.2 nM | 6.3 nM | 275 nM |  |  |
| COC1CN([C@H]2CC[C@@](CC#N)(n3cc(C(N)=O)c(NC(=O)C4CC4)n3)CC2)C1 [Example 102] |  | 31.8 nM | 933 nM | 3.3 nM |  |
| N#CC[C@]1(n2cc(C(N)=O)c(NC(=O)C3CC3)n2)CC[C@H](N2CC3(CCC3)C2)CC1 [Example 107] |  | 43.1 nM | > 1000 nM | 3.3 nM |  |
| N#CC[C@]1(n2cc(C(N)=O)c(NC(=O)C3CC3)n2)CC[C@H](NCc2ccccc2Cl)CC1 [Example 117] |  | 54.7 nM | 611 nM | 3.7 nM |  |
| N#CC[C@]1(n2cc(C(N)=O)c(NC(=O)C3CC3)n2)CC[C@@H](NCc2ccc(-c3ccccc3)cc2)CC1 [Example 128] |  | 46.4 nM |  | 4.6 nM | 349 nM |
| CN(CC(F)(F)F)[C@H]1CC[C@](CC#N)(n2cc(C(N)=O)c(NC(=O)C3CC3)n2)CC1 [Example 129] |  | 16.3 nM | 393 nM | 3.3 nM |  |
| COC1(C(F)(F)F)CN([C@H]2CC[C@@](CC#N)(n3cc(C(N)=O)c(NC(=O)C4CC4)n3)CC2)C1 [Example 131] | 2.8 nM | 18.7 nM | 334 nM |  |  |
| N#CC[C@]1(n2cc(C(N)=O)c(NC(=O)C3CC3)n2)CC[C@@H](N2CC(OCc3ccccc3)(C(F)(F)F)C2)CC1 [Example 133] | 2.5 nM | 15.6 nM | 162 nM |  |  |
| CC(C)OC1(C(F)(F)F)CN([C@H]2CC[C@@](CC#N)(n3cc(C(N)=O)c(NC(=O)C4CC4)n3)CC2)C1 [Example 135] | 2.4 nM | 24.3 nM | 170 nM |  |  |
| N#CC[C@]1(n2cc(C(N)=O)c(NC(=O)C3CC3)n2)CC[C@@H](N2CC(O)(C(F)(F)F)C2)CC1 [Example 137, 1-[1-(cyanomethyl)-4-[3-hydroxy-3-(trifluoromethyl)azetidin-1-yl]cyclohexyl]-3-(cyclopropanecarbonylamino) pyrazole-4-carboxamide] | 2.7 nM | 21.7 nM | > 1000 nM |  |  |
| N#CCC1(n2cc(C(N)=O)c(NC(=O)C3CC3)n2)CCN(Cc2ccc(-c3cccc(F)c3)c(O)c2)CC1 [Example 139, 1-[4-(cyanomethyl)-1-[[4-(3-fluorophenyl)-3-hydroxy-phenyl]methyl]-4-piperidyl]-3-(cyclopropanecarbonylamino) pyrazole-4-carboxamide] | 0.4 nM | 1 nM | 104 nM |  |  |
| N#CCC1(n2cc(C(N)=O)c(NC(=O)C3CC3)n2)CCN(Cc2ccc(-c3ccccc3)c(F)c2)CC1 [Example 140, 1-[4-(cyanomethyl)-1-[(3-fluoro-4-phenyl-phenyl)methyl]-4-piperidyl]-3-(cyclopropanecarbonylamino) pyrazole-4-carboxamide] | 0.6 nM | 4.4 nM | 49 nM |  |  |
| N#CCC1(n2cc(C(N)=O)c(NC(=O)C3CC3)n2)CCN(Cc2ccc(-c3csc(Cl)c3)c(F)c2)CC1 [Example 141, 1-[1-[[4-(5-chloro-3-thienyl)-3-fluoro-phenyl]methyl]-4-(cyanomethyl)-4-piperidyl]-3-(cyclopropanecarbonylamino) pyrazole-4-carboxamide] | 0.8 nM | 3.4 nM | 62 nM |  |  |
| N#CCC1(n2cc(C(N)=O)c(NC(=O)C3CC3)n2)CCN(Cc2ccc(-c3ccccc3F)cc2)CC1 [Example 142, 1-[4-(cyanomethyl)-1-[[4-(2-fluorophenyl)phenyl]methyl]-4-piperidyl]-3-(cyclopropanecarbonylamino) pyrazole-4-carboxamide] | 1.7 nM | 12.9 nM | 60 nM |  |  |
| N#CCC1(n2cc(C(N)=O)c(NC(=O)C3CC3)n2)CCN(Cc2ccc(-c3cccc(F)c3)cc2)CC1 [Example 143, 1-[4-(cyanomethyl)-1-[[4-(3-fluorophenyl)phenyl]methyl]-4-piperidyl]-3-(cyclopropanecarbonylamino) pyrazole-4-carboxamide] | 0.7 nM | 5.5 nM | 49 nM |  |  |
| CN(C)C(=O)c1cccc(-c2ccc(CN3CCC(CC#N)(n4cc(C(N)=O)c(NC(=O)C5CC5)n4)CC3)cc2)c1 [Example 145, 1-[4-(cyanomethyl)-1-[[4-[3-(dimethylcarbamoyl)phenyl]phenyl]methyl]-4-piperidyl]-3-(cyclopropanecarbonylamino) pyrazole-4-carboxamide] | 3.1 nM | 15.5 nM | > 1000 nM |  |  |
| N#CCC1(n2cc(C(N)=O)c(NC(=O)C3CC3)n2)CCN(Cc2ccc(-c3cccc(Cl)c3)cc2)CC1 [Example 146, 1-[1-[[4-(3-chlorophenyl)phenyl]methyl]-4-(cyanomethyl)-4-piperidyl]-3-(cyclopropanecarbonylamino) pyrazole-4-carboxamide] | 1.1 nM | 8.2 nM | 95 nM |  |  |
| N#CCC1(n2cc(C(N)=O)c(NC(=O)C3CC3)n2)CCN(Cc2ccc(-c3ccc(Cl)cc3)cc2)CC1 [Example 147, 1-[1-[[4-(4-chlorophenyl)phenyl]methyl]-4-(cyanomethyl)-4-piperidyl]-3-(cyclopropanecarbonylamino) pyrazole-4-carboxamide] | 2.1 nM | 32 nM | 51 nM |  |  |
| N#CCC1(n2cc(C(N)=O)c(NC(=O)C3CC3)n2)CCN(Cc2ccc(-c3ccc(Cl)s3)cc2)CC1 [Example 148, 1-[1-[[4-(5-chloro-2-thienyl)phenyl]methyl]-4-(cyanomethyl)-4-piperidyl]-3-(cyclopropanecarbonylamino) pyrazole-4-carboxamide] | 1.8 nM | 21.2 nM | 48 nM |  |  |
| N#CCC1(n2cc(C(N)=O)c(NC(=O)C3CC3)n2)CCN(Cc2ccc(-c3csc(Cl)c3)cc2)CC1 [Example 149, 1-[1-[[4-(5-chloro-3-thienyl)phenyl]methyl]-4-(cyanomethyl)-4-piperidyl]-3-(cyclopropanecarbonylamino) pyrazole-4-carboxamide] | 0.7 nM | 4.7 nM | 41 nM |  |  |
| N#CCC1(n2cc(C(N)=O)c(NC(=O)C3CC3)n2)CCN(Cc2ccc(-c3ccc(C(F)(F)F)cc3)cc2)CC1 [Example 151, 1-[4-(cyanomethyl)-1-[[4-[4-(trifluoromethyl)phenyl]phenyl]methyl]-4-piperidyl]-3-(cyclopropanecarbonylamino) pyrazole-4-carboxamide] | 3.4 nM | 154 nM | 286 nM |  |  |
